The text below walks through data of patent US5859036A, “3,4-diarylthiazolin-2-one or -2-thione derivatives, their methods of preparation and their uses in their methods of preparation and their uses in therapeutics” (Laboratories UPSA, priority 1997, dated 1999).

The structures appear in SMILES notation.

Assay [1] deals with T1, COX-1 (Ovis aries, UniProt P05979).
T1 construct: purified enzyme from ram seminal vesicles; from tissue; host or cells: ram seminal vesicles
T1 sequence (P05979 25-600): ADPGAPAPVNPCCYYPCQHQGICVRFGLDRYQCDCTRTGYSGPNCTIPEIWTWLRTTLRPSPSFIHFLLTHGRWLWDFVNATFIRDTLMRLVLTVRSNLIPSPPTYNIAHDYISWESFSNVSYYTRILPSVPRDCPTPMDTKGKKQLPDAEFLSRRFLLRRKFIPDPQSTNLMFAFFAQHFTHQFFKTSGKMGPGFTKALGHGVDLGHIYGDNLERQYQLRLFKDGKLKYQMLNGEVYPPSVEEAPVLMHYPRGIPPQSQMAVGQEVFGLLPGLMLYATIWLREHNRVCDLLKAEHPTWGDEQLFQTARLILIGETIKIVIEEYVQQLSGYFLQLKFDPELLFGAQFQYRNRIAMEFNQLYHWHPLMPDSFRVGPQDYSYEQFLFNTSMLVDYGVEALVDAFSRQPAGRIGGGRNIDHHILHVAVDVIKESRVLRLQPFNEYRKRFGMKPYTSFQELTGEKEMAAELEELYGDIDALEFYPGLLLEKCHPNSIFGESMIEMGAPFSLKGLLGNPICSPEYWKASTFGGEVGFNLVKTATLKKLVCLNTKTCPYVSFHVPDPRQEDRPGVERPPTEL
Nature of the assay: Inhibition of COX-1 enzymatic activity (purified enzyme from ram seminal vesicles, PGE2 by EIA). The assay is classed as biochemical. The note with it: 2 U COX-1, 10 min preincubation at 25° C., 6 μM arachidonic acid, 5 min; n=1 to 4. How it is done: (§1) Inhibition of the COX-1 and COX-2 enzymatic activities The molecule studied is preincubated for 10 minutes at 25° C. with 2 U of COX-1 (purified enzyme from ram seminal vesicles) or 1 U of COX-2 (purified enzyme from ewe placenta). Arachidonic acid (6 μM for COX-1,4 μM for COX-2) is added to the reaction medium and incubation is carried out for 5 minutes at 25° C. When incubation has ended, the enzymatic reaction is stopped by the addition of 1 N HCl and the PGE2 produced is determined by EIA. The results are expressed in the form of IC50, concentration in […] corresponding to 50% inhibition of the maximal enzymatic activity upon COX-1 and COX-2 (n=1 to 4 determinations).

For assay [2], the target named is T2, COX-2 (Ovis aries, UniProt P79208).
T2 construct: purified enzyme from ewe placenta; from tissue; host or cells: ewe placenta
T2 sequence (P79208 17-603): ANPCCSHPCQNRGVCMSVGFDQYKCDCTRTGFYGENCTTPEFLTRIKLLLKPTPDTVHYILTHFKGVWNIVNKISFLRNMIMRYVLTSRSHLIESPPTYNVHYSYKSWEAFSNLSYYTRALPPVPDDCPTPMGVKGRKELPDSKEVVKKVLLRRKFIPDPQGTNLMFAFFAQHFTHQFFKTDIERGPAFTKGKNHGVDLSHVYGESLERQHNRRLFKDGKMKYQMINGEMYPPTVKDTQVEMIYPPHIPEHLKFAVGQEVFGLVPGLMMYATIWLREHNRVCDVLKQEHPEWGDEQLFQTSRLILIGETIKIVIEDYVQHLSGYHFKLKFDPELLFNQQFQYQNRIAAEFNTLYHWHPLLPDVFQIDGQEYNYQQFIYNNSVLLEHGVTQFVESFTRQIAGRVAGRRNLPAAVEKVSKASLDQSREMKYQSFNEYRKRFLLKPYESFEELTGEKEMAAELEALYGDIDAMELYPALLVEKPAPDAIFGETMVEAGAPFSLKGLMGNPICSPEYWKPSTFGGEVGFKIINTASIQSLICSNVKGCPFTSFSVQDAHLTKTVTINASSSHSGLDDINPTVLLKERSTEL
Nature of the assay: Inhibition of COX-2 enzymatic activity (purified enzyme from ewe placenta, PGE2 by EIA). Format: biochemical. The note with it: for IC50: 1 U COX-2, 10 min preincubation at 25° C., 4 μM arachidonic acid, 5 min, n=1 to 4; for Selectivity COX-1/COX-2 ratio: ratio of IC50 COX-1 / IC50 COX-2. How it is done:
as §1

A short description of assay [3]: Analgesic activity, test of arthritis with kaolin in rats. The assay is classed as in vivo. The note with it: 0.5 h; rat, oral, 30 min after intra-articular 10% kaolin; dose inducing 50% decrease of the maximal quotations of control. How it is done: (§2) The anti-inflammatory activity of the compounds of the Examples has been evaluated according to the method of oedema with carrageenan and the analgesic activity has been evaluated according to the method of arthritis with kaolin.
The analgesic activity is evaluated in rats by the test of arthritis with kaolin. Thirty minutes after intra-articular administration of an aqueous 10% suspension of kaolin, the product is administered orally at a rate of 1 ml/ 100 g (n=10 animals per dose). The results are expressed in the form of ED50, the dose in mg/kg which induces 50% decrease of the maximal quotations obtained in the control batch, calculated by linear regression.

Assay [4] in a line: Anti-inflammatory activity, test of oedema with carrageenan in rats. Format: in vivo. The note with it: rat, oral, product 1 h before plantar injection of 2% carrageenan; dose inducing 50% of the maximal decrease of oedema volume; read-out: Anti-inflammatory Activity ID50. How it is done:
as §2
Anti-inflammatory activity:
The anti-inflammatory activity is evaluated in rats by the test of oedema with carrageenan. The product is administered orally at a rate of 2.5 ml/100 g (n=6 animals per dose) 2 hours 30 minutes after a water overload taken orally (2.5 ml/100 g). One hour after administration of the product, the oedema is induced by plantar subcutaneous injection of aqueous 2% carrageenan solution. The results are expressed as ID50, dose in mg/kg, calculated by linear regression, which induces 50% of the maximal decrease of the volume of the oedema obtained from each product tested.

Broadly, the IC50 is the concentration at which inhibition is half-maximal. In assay [1], `CS(=O)(=O)c1ccc(-c2csc(=S)n2-c2cccc(Cl)c2)cc1` [Example 9] returned an IC50 of 100 µM. Besides, in assay [2], half-maximal inhibition (IC50) required 3.34 µM and the “Selectivity COX-1/COX-2 ratio” value is on record as 30.
As for `NS(=O)(=O)c1ccc(-c2csc(=S)n2-c2ccc(F)cc2)cc1` [Example 13], half-maximal inhibition in assay [1] (IC50) was put at 32 µM. Also, in assay [2], the IC50 is 0.93 µM and the “Selectivity COX-1/COX-2 ratio” value came to 34.
For `COc1ccc(-n2c(-c3ccc(S(N)(=O)=O)cc3)csc2=S)cc1Cl` [Example 20] the same measures were 17.6 µM, 2 µM and 9.
In the case of `NS(=O)(=O)c1ccc(-c2csc(=S)n2-c2cccc(F)c2)cc1` [Example 29], the IC50 in assay [1] turned out to be 258 µM. Besides, in assay [2], the IC50 was found to be 0.65 µM and the “Selectivity COX-1/COX-2 ratio” value was 396.
For `NS(=O)(=O)c1ccc(-c2csc(=S)n2-c2ccc(F)c(F)c2)cc1` [Example 30] the same measures were 19.8 µM, 0.21 µM and 94.
The molecule `NS(=O)(=O)c1ccc(-c2csc(=O)n2-c2ccc(Cl)c(Cl)c2)cc1` [Example 39] returned an IC50 in assay [1] of 1.94 µM. For the same molecule, in assay [2], half-maximal inhibition (IC50) was put at 0.14 µM and the “Selectivity COX-1/COX-2 ratio” value came out at 14.
For `NS(=O)(=O)c1ccc(-c2csc(=O)n2-c2cccc(F)c2)cc1` [Example 45], the results for the IC50 in assay [1] and in assay [2] were 335 µM and 0.24 µM, respectively. Further, the ED50 stood at 1.3 mg/kg in assay [3] and 2.8 mg/kg in assay [4]. Also, the “Selectivity COX-1/COX-2 ratio” value in assay [2] was 1367.
As for `CS(=O)(=O)c1ccc(-c2csc(=O)n2-c2ccc(Cl)cc2)cc1` [Example 46], the IC50 turned out to be 163 µM in assay [1] and 0.57 µM in assay [2]. Also, the “Selectivity COX-1/COX-2 ratio” value in assay [2] worked out at 286.
